The source of these data is patent US7928098B2, “Therapeutic and/or preventive agents for a sleep disorder” (Kyowa Hakko Kirin Co., Ltd., priority 2005, dated 2011).

One may read the melting point as the temperature, or range, at which the solid turns liquid. In the case of `O=C(CN1CCC(N2CCOCC2)CC1)Nc1nc(-c2ccco2)c(C(=O)C2CCOCC2)s1` [Compound 458, N-[4-(2-Furyl)-5-(tetrahydropyran-4-ylcarbonyl)thiazol-2-yl]-2-(4-morpholinopiperidino)acetamide], the melting point is 193 to 195 °C. Molecule `Cn1ccc(C(=O)Nc2nc(-c3ccco3)c(C(=O)c3ccccn3)s2)cc1=O` [Compound 141, N-[4-(2-Furyl)-5-(pyridin-2-ylcarbonyl)thiazol-2-yl]-1-methyl-2-oxo-1,2-dihydropyridine-4-carboxamide] had a melting point of 280 to 285 °C. Molecule `O=C(Nc1nc(-c2ccco2)c(C(=O)c2ccccc2)s1)c1ccnc(CN2CCOCC2)c1` [Compound 52, N-[5-Benzoyl-4-(2-furyl)thiazol-2-yl]-2-(morpholinomethyl)pyridine-4-carboxamide] gave a melting point of 212 to 213 °C. Consider `O=C(Nc1nc(-c2ccco2)c(C(=O)C2CCOCC2)s1)c1cccnc1` [Compound 406, N-[4-(2-Furyl)-5-(tetrahydropyran-4-ylcarbonyl)thiazol-2-yl]pyridine-3-carboxamide], for which the melting point was in the range of 209 to 212 °C. As to `CN(C)c1ccc(C(=O)c2sc(NC(=O)c3ccncc3)nc2-c2ccco2)cn1` [Compound 230, N-{5-[2-(Dimethylamino)pyridin-5-ylcarbonyl]-4-(2-furyl)thiazol-2-yl}pyridine-4-carboxamide], the melting point is 260 to 265 °C (dec.). `O=C(CN1CCC2(CC1)OCCO2)Nc1nc(-c2ccco2)c(C(=O)c2ccccn2)s1` [Compound 177, 2-(1,4-Dioxa-8-azaspiro[4.5]decan-8-yl)-N-[4-(2-furyl)-5-(pyridin-2-ylcarbonyl)thiazol-2-yl]acetamide] gave a melting point of 188 to 204 °C. In the case of `CC(=O)N1CCN(CC(=O)Nc2nc(-c3ccco3)c(C(=O)c3ccccn3)s2)CC1` [Compound 183, 2-(4-Acetylpiperazin-1-yl)-N-[4-(2-furyl)-5-(pyridin-2-ylcarbonyl)thiazol-2-yl]acetamide], the melting point was 170 to 171 °C. Take `COCC(=O)c1sc(NC(=O)c2ccc(Cl)nc2)nc1-c1ccco1` [Compound 310, 2-Chloro-N-[4-(2-furyl)-5-(methoxyacetyl)thiazol-2-yl]pyridine-5-carboxamide]: the melting point is 174 to 183 °C.

As for `CN1CCCN(CC(=O)Nc2nc(-c3ccco3)c(C(=O)C3CCOCC3)s2)CC1` [Compound 481, N-[4-(2-Furyl)-5-(tetrahydropyran-4-ylcarbonyl)thiazol-2-yl]-2-(4-methyl-1,4-diazepan-1-yl)acetamide], the melting point was 94 to 96 °C. With `CN(C)Cc1ccc(C(=O)Nc2nc(-c3ccco3)c(C(=O)C3CCOCC3)s2)cc1` [Compound 384, 4-(Dimethylaminomethyl)-N-[4-(2-furyl)-5-(tetrahydropyran-4-ylcarbonyl)thiazol-2-yl]benzamide], the melting point lay in the range of 109 to 112 °C. The molecule `O=C(c1sc(NC(=O)N2CCOCC2)nc1-c1ccco1)C1CCCC1` [Compound 340, N-[5-(Cyclopentylcarbonyl)-4-(2-furyl)thiazol-2-yl]morpholine-4-carboxamide] yielded a melting point of 108 to 110 °C. `N#Cc1ccccc1C(=O)Nc1nc(-c2ccco2)c(C(=O)C2CCOCC2)s1` [Compound 377, 2-Cyano-N-[4-(2-furyl)-5-(tetrahydropyran-4-ylcarbonyl)-thiazol-2-yl]benzamide] came in with a melting point of 221 to 224 °C. In the case of `COc1ccc(C(=O)c2sc(NC(=O)c3ccncc3)nc2-c2ccco2)cn1` [Compound 226, N-[4-(2-Furyl)-5-(2-methoxypyridin-5-ylcarbonyl)thiazol-2-yl]pyridine-4-carboxamide], the melting point is 246 to 257 °C (dec.).

For `Cc1ccc(C(=O)c2sc(NC(=O)c3ccncc3)nc2-c2ccco2)cn1` [Compound 220, N-[4-(2-Furyl)-5-(2-methylpyridin-5-ylcarbonyl)thiazol-2-yl]pyridine-4-carboxamide], the melting point is 230 to 232 °C (dec.). The value for `O=C(Nc1nc(-c2ccco2)c(C(=O)C2CCOCC2)s1)c1ccoc1` [Compound 421, N-[4-(2-Furyl)-5-(tetrahydropyran-4-ylcarbonyl)thiazol-2-yl]furan-3-carboxamide] was 236 to 238 °C; that for `Cc1ncccc1C(=O)c1sc(NC(=O)c2ccncc2)nc1-c1ccco1` [Compound 217, N-[4-(2-Furyl)-5-(2-methylpyridin-3-ylcarbonyl)thiazol-2-yl]pyridine-4-carboxamide] was 230 to 234 °C; that for `Cc1ccc(C(=O)c2sc(NC(=O)c3ccco3)nc2-c2ccco2)cn1` [Compound 222, N-[4-(2-Furyl)-5-(2-methylpyridin-5-ylcarbonyl)thiazol-2-yl]furan-2-carboxamide] was 197 to 209 °C. With `O=C(Nc1nc(-c2ccco2)c(C(=O)C2CCOCC2)s1)c1ccc(CN2CCCCC2)cc1` [Compound 385, N-[4-(2-Furyl)-5-(tetrahydropyran-4-ylcarbonyl)thiazol-2-yl]-4-(piperidinomethyl)benzamide] the figure was 160 to 162 °C. The value for `O=C(c1ccccn1)c1sc(NC(=O)C2COc3ccccc3O2)nc1-c1ccco1` (stereo not drawn) [Compound 119, N-[4-(2-Furyl)-5-(pyridin-2-ylcarbonyl)thiazol-2-yl]-1,4-benzodioxane-2-carboxamide] was 103 to 104 °C. Turning to `Cc1ccnc(C(=O)c2sc(NC(=O)c3ccncc3)nc2-c2ccco2)c1` [Compound 203, N-[4-(2-Furyl)-5-(4-methylpyridin-2-ylcarbonyl)thiazol-2-yl]pyridine-4-carboxamide], the melting point was in the range of 240 to 245 °C. As to `Cc1ccc(C(=O)Nc2nc(-c3ccco3)c(C(=O)c3ccccn3)s2)cn1` [Compound 130, N-[4-(2-Furyl)-5-(pyridin-2-ylcarbonyl)thiazol-2-yl]-2-methylpyridine-5-carboxamide], the melting point lay within 210 to 215 °C. Molecule `O=C(Nc1nc(-c2ccco2)c(C(=O)c2ccccn2)s1)c1ccnc(N2CCCCC2)c1` [Compound 126, N-[4-(2-Furyl)-5-(pyridin-2-ylcarbonyl)thiazol-2-yl]-2-piperidinopyridine-4-carboxamide] displayed a melting point of 136 to 141 °C. In turn, `O=C(Nc1nc(-c2ccco2)c(C(=O)C2CCOCC2)s1)c1cccc2c1OC(F)(F)O2` [Compound 402, 2,2-Difluoro-N-[4-(2-furyl)-5-(tetrahydropyran-4-ylcarbonyl)thiazol-2-yl]-1,3-benzodioxol-4-carboxamide] had a melting point of 206 to 207 °C. The molecule `O=C(Nc1nc(-c2ccco2)c(C(=O)C2CCOCC2)s1)c1cc(F)cc(F)c1` [Compound 399, 3,5-Difluoro-N-[4-(2-furyl)-5-(tetrahydropyran-4-ylcarbonyl)thiazol-2-yl]benzamide] showed a melting point of 259 to 265 °C. `COC[C@H]1CCCN1CC(=O)Nc1nc(-c2ccco2)c(C(=O)C2CCOCC2)s1` [Compound 442, N-[4-(2-Furyl)-5-(tetrahydropyran-4-ylcarbonyl)thiazol-2-yl]-2-[(2R)-2-(methoxymethyl)pyrrolidin-1-yl]acetamide]: the melting point fell in the range of 103 to 104 °C. Turning to `Cc1ccc(C(=O)c2sc(NC(=O)c3ccc(C#N)cc3)nc2-c2ccco2)cn1` [Compound 221, 4-Cyano-N-[4-(2-furyl)-5-(2-methylpyridin-5-ylcarbonyl)thiazol-2-yl]benzamide], the melting point lay within 261 to 265 °C. Turning to `COCCNC(=O)Nc1nc(-c2ccco2)c(C(=O)c2ccccn2)s1` [Compound 168, N-[4-(2-Furyl)-5-(pyridin-2-ylcarbonyl)thiazol-2-yl]-N′-(2-methoxyethyl)urea], the melting point lay within 150 to 151 °C. `O=C(CN1CCOCC1)Nc1nc(-c2ccco2)c(C(=O)c2ccccn2)s1` [Compound 172, N-[4-(2-Furyl)-5-(pyridin-2-ylcarbonyl)thiazol-2-yl]morpholinoacetamide] gave a melting point of 170 to 171 °C. `O=C(CNC12CC3CC(CC(O)(C3)C1)C2)Nc1nc(-c2ccco2)c(C(=O)C2CCOCC2)s1` [Compound 483, N-[4-(2-Furyl)-5-(tetrahydropyran-4-ylcarbonyl)thiazol-2-yl]-2-(3-hydroxyadamantan-1-ylamino)acetamide] displayed a melting point of 176 to 178 °C.

Consider `O=C(Nc1nc(-c2ccco2)c(C(=O)c2ccc(=O)n(Cc3ccccc3)c2)s1)c1ccncc1` [Compound 271, N-[5-(1-Benzyl-2-oxo-1,2-dihydropyridin-5-ylcarbonyl)-4-(2-furyl)thiazol-2-yl]pyridine-4-carboxamide], for which the melting point was 265 to 282 °C (dec.). For the molecule `COCCN(C)c1cc(C(=O)Nc2nc(-c3ccco3)c(C(=O)c3ccccc3)s2)ccn1` [Compound 53, N-[5-Benzoyl-4-(2-furyl)thiazol-2-yl]-2-[N-(2-methoxyethyl)-N-methylamino]pyridine-4-carboxamide], the melting point fell in the range of 145 to 147 °C. With `Cc1ccccc1C(=O)Nc1nc(-c2ccco2)c(C(=O)C2CCOCC2)s1` [Compound 363, N-[4-(2-Furyl)-5-(tetrahydropyran-4-ylcarbonyl)thiazol-2-yl]-2-methylbenzamide], the melting point lay within 204 to 206 °C. Regarding `CC(C)(O)CN1CCN(CC(=O)Nc2nc(-c3ccco3)c(C(=O)C3CCOCC3)s2)CC1` [Compound 470, N-[4-(2-Furyl)-5-(tetrahydropyran-4-ylcarbonyl)thiazol-2-yl]-2-[4-(2-hydroxy-2-methylpropyl)piperazin-1-yl]acetamide], the melting point lay in the range of 106 to 108 °C.

`Cc1ccc(C(=O)c2sc(NC(=O)c3ccncc3)nc2-c2ccco2)o1` [Compound 250, N-[4-(2-Furyl)-5-(5-methylfuran-2-ylcarbonyl)thiazol-2-yl]pyridine-4-carboxamide] registered a melting point of 185 to 189 °C. Take `CC(C)(C)C(=O)c1sc(NC(=O)C2CC2)nc1-c1ccco1` [Compound 307, N-[4-(2-Furyl)-5-pivaloylthiazol-2-yl]cyclopropanecarboxamide]: the melting point was in the range of 133 to 134 °C. On to `O=C(Nc1nc(-c2ccco2)c(C(=O)C2CCCCC2)s1)c1ccncc1` [Compound 344, N-[5-(Cyclohexylcarbonyl)-4-(2-furyl)thiazol-2-yl]pyridine-4-carboxamide], for which the melting point is 197 to 199 °C.
